Test results published in the supplement of paper PMC10307832.

Assays:
Assay in all cases: relative viability (nuclei count vs DMSO), 5 days (fraction); higher = more cells survive
[1] = compound: COc1cc(Nc2c(C#N)cnc3cc(OCCCN4CCN(C)CC4)c(OC)cc23)c(Cl)cc1Cl [Bosutinib] + N=C(N)NC(=N)NCCc1ccccc1 [Phenformin] (partner 250 µM)
Procedure, shortened: (§1)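 Lung cancer cell lines in 1536-well plates were dosed by pin tool the day after seeding, either with one drug alone or with a fixed anchor-drug dose plus five library-drug doses (not always all listed) in √10 steps. After 5 days, cells were fixed and their nuclei stained in one step (final 0.05% Triton X-100, 1% formaldehyde, 1 ug/ml Hoechst), then counted on 4× images. Relative viability is the nuclei count in treated wells divided by that in vehicle wells. Values are medians of duplicate plates.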

[2] = compound: COc1cc(Nc2c(C#N)cnc3cc(OCCCN4CCN(C)CC4)c(OC)cc23)c(Cl)cc1Cl [Bosutinib] + C[C@@H](Oc1cc(-c2cnn(C3CCNCC3)c2)cnc1N)c1c(Cl)ccc(F)c1Cl [Crizotinib] (partner 1 µM)
Procedure, shortened: as §1

[3] = compound: COc1cc(Nc2c(C#N)cnc3cc(OCCCN4CCN(C)CC4)c(OC)cc23)c(Cl)cc1Cl [Bosutinib] + COc1cc2c(Oc3ccc(NC(=O)C4(C(=O)Nc5ccc(F)cc5)CC4)cc3F)ccnc2cc1OCCCN1CCOCC1 [Foretinib] (partner 0.25 µM)
Procedure, shortened: as §1

[4] = compound: COc1cc(Nc2c(C#N)cnc3cc(OCCCN4CCN(C)CC4)c(OC)cc23)c(Cl)cc1Cl [Bosutinib] + C[C@]1(O)C[C@@H](c2nc(-c3ccc4ccc(-c5ccccc5)nc4c3)c3c(N)nccn32)C1 [Linsitinib] (partner 1 µM)
Procedure, shortened: as §1

[5] = compound: COc1cc(Nc2c(C#N)cnc3cc(OCCCN4CCN(C)CC4)c(OC)cc23)c(Cl)cc1Cl [Bosutinib]
Procedure, shortened: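 In 1536-well plates, lung cancer cell lines rested overnight at 37 °C before five library-drug doses (not always all listed), √10 apart, were pinned onto vehicle-anchored plates. Nuclei were counted with MetaXpress from 4× Hoechst images taken after 5 days without medium change. Viability compares treated-well with vehicle-well nuclei as a median over plates, and plates needed control CV below 25% plus at least one doubling to pass.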

Cell Line | relative viability ([1]; first compound 0.01 µM) | relative viability ([1]; first compound 0.03162 µM) | relative viability ([1]; first compound 0.1 µM) | relative viability ([1]; first compound 1 µM) | relative viability ([2]; first compound 0.01 µM) | relative viability ([2]; first compound 0.03162 µM) | relative viability ([2]; first compound 0.1 µM) | relative viability ([2]; first compound 1 µM) | relative viability ([3]; first compound 0.01 µM) | relative viability ([3]; first compound 0.03162 µM) | relative viability ([3]; first compound 0.1 µM) | relative viability ([3]; first compound 1 µM) | relative viability ([4]; first compound 0.01 µM) | relative viability ([4]; first compound 0.03162 µM) | relative viability ([4]; first compound 0.1 µM) | relative viability ([4]; first compound 1 µM) | relative viability ([5]; 0.01 µM) | relative viability ([5]; 0.03162 µM) | relative viability ([5]; 0.1 µM) | relative viability ([5]; 1 µM)
NCI-H647 | 0.606 | 0.494 | 0.436 | 0.348 | 1.03 | 1.23 | 1.07 | 0.687 | 1.28 | 1.17 | 1.31 | 0.778 | 0.913 | 1.11 | 1.21 | 0.817 | 1.07 | 0.933 | 0.928 | 0.627
NCI-H2009 | 0.53 | 0.49 | 0.423 | 0.346 | 1.05 | 1.07 | 1.03 | 0.66 | 1.22 | 1.24 | 1.2 | 0.857 | 1.18 | 1.22 | 1.2 | 0.886 | 1.07 | 1.05 | 1.06 | 0.865
EPLC-272H | 0.275 | 0.353 | 0.331 | 0.335 | 0.904 | 1.17 | 1.05 | 0.818 | 0.657 | 0.677 | 0.704 | 0.58 | 1.18 | 1.25 | 1.31 | 1.14 | 0.982 | 1.01 | 1.12 | 0.911
NCI-H520 | 0.677 | 0.64 | 0.507 | 0.393 | 0.806 | 0.74 | 0.635 | 0.676 | 0.929 | 0.857 | 0.789 | 0.551 | 1.05 | 1.05 | 1.03 | 0.767 | 1.02 | 1.11 | 0.953 | 0.775
NCI-H2405 | 0.413 | 0.385 | 0.386 | 0.281 | 0.945 | 0.855 | 0.891 | 0.576 | 1.03 | 1.07 | 1.09 | 0.832 | 0.953 | 0.949 | 0.954 | 0.418 | 1.05 | 1.1 | 1.03 | 0.801
NCI-H2085 | 0.825 | 0.705 | 0.652 | 0.515 | 0.799 | 0.685 | 0.826 | 0.874 | 0.949 | 0.983 | 0.806 | 0.935 | 0.778 | 0.865 | 0.835 | 1 | 0.969 | 0.938 | 0.919 | 0.928
NCI-H322M | 0.865 | 0.777 | 0.846 | 0.449 | 1.08 | 0.949 | 0.968 | 1 | 1.04 | 0.867 | 0.881 | 0.414 | 0.964 | 0.954 | 1.03 | 0.789 | 0.889 | 0.985 | 0.98 | 0.576
NCI-H1944 | 0.203 | 0.193 | 0.202 | 0.186 | 1.16 | 1.07 | 1.09 | 0.946 | 0.997 | 0.814 | 0.889 | 0.574 | 1.18 | 1.25 | 1.14 | 0.809 | 0.965 | 0.92 | 0.913 | 0.888
LC-2-ad | 0.659 | 0.549 | 0.577 | 0.694 | 0.449 | 0.473 | 0.445 | 0.539 | 0.982 | 0.979 | 0.948 | 0.61 | 0.902 | 0.879 | 0.871 | 0.78 | 0.961 | 1.08 | 1.06 | 1
NCI-H358 | 0.387 | 0.309 | 0.32 | 0.357 | 0.516 | 0.512 | 0.505 | 0.647 | 0.896 | 0.705 | 0.648 | 0.494 | 0.787 | 0.753 | 0.602 | 0.594 | 0.964 | 0.913 | 0.961 | 0.685
NCI-H2170 | 0.391 | 0.418 | 0.427 | 0.328 | 1.25 | 1.14 | 1.15 | 1.06 | 0.959 | 1 | 1.01 | 0.962 |  |  |  |  | 1.01 | 0.974 | 1.01 | 0.926
A-427 | 0.46 | 0.369 | 0.331 | 0.26 | 0.867 | 0.954 | 0.877 | 0.61 | 1.02 | 1 | 1.14 | 0.972 | 1.1 | 1.13 | 1.21 | 1.02 | 0.979 | 1.04 | 1.03 | 0.926
NCI-H1666 | 0.536 | 0.545 | 0.552 | 0.597 | 1.2 | 0.987 | 0.916 | 0.912 | 1.04 | 0.936 | 0.976 | 0.921 | 0.774 | 0.774 | 0.794 | 0.662 | 0.988 | 1.04 | 0.924 | 1.02
LOU-NH91 | 0.717 | 0.699 | 0.636 | 0.497 | 0.737 | 0.723 | 0.707 | 0.49 | 0.912 | 0.929 | 0.845 | 0.538 | 0.939 | 0.921 | 0.834 | 0.521 | 0.941 | 0.999 | 0.971 | 0.779
ABC-1 | 0.186 | 0.196 | 0.224 | 0.26 | 1.01 | 1.04 | 1.21 | 0.708 | 0.902 | 1.17 | 1.21 | 0.895 | 0.858 | 0.931 | 0.647 | 0.359 | 0.976 | 0.99 | 0.854 | 0.88
